Data: patent US6667387B1, “HCV core peptides” (priority 1992, dated 2003)
* marks the point of attachment. Biotin = O=C1N[C@H]2[C@H](CS[C@H]2CCCCC(=O)*)N1

Legend:
[1] = test system: antibodies in sera from HCV-seropositive donors; test: ELISA with HCV antibody-positive sera (biotinylated peptides on streptavidin- or avidin-coated plates, unbiotinylated peptides coated directly); format: binding, human; settings: for PEPTIDE ELISA (O.D.): Table 12, biotinylated 20-mers; for optical density (450 nm): Table 7
Procedure: (§1) Where peptides were to be coated directly, stock solutions of the peptides were diluted in sodium carbonate buffer, pH 9.6 and used to coat polystyrene microtiter plates at a peptide concentration of 2 to 5 micrograms per milliliter for 1 hour at 37° C.
(§2) In cases where biotinylated peptides were to be evaluated, plates were first coated with streptavidin in sodium carbonate buffer, pH 9.6 at a concentration of 3 micrograms per milliliter for 1 hour at 37° C. The plates were then washed to remove excess, unbound protein. A working solution of the biotinylated peptide at 1 microgram per milliliter in sodium carbonate buffer was then added to the wells of the microtiter plate and incubated for 1 hours at 37° C.
(§3) Once the plates had been coated with antigen, any remaining free binding sites on the plastic were blocked with casein. After washing, a dilution of the appropriate antisera, usually 1:100, was added to the wells of the plates and incubated for 1 hour at 37° C.
(§4) After washing to remove unbound material, specific antibody binding was detected by incubating the plates with goat anti-human immunoglobulin antibodies conjugated to the enzyme horseradish peroxidase. Following removal of unbound conjugate by washing, a solution containing H2O2 and 3,3′,5,5′-tetramethylbenzidine was added.
(§5) Reactions were stopped after a suitable interval by addition of sulfuric acid. […] Absorbance measurements were made at a wavelength of 450 nanometers and all data are expressed as an optical density value at this wavelength.
The unbiotinylated peptides were adsorbed onto the wells of polystyrene microtiter plates at a concentration of 3 micrograms per milliliter.
The biotinylated peptides were bound at a concentration of 1 microgram per milliliter to streptavidin-coated microtiter plates. Sera known to contain antibodies to these peptides were used for the evaluation and were tested at a 20-fold dilution.
To investigate further the enhanced antibody recognition of biotinylated HCV peptides bound to streptavidin or avidin as compared to direct adsorption on plastic, the influence of peptide coating concentration was investigated. Three peptides (HCV peptides II, XI, and XVI) were coated in concentrations ranging from 10 nanograms per milliliter to 3 micrograms per milliliter in a volume of 200 microliters per microtiter plate well. For direct coating, the unbiotinylated versions of these peptides were used. The biotinylated versions of these peptides were used to coat wells to which streptavidin had previously been adsorbed. Sera known to contain antibodies to these peptides were used at a dilution of 1 to 100 to evaluate the magnitude of antibody binding.
(§6) Unbiotinylated HCV peptide I was coated directly onto the wells of a polystyrene ELISA plate at a concentration of 3 micrograms per milliliter in sodium carbonate buffer, pH 9.6. Biotinylated HCV peptide I was bound to streptavidin-coated wells using a stock solution containing the peptide at a concentration of 1 microgram per milliliter. The resulting plates were then incubated in parallel with a panel of sera from HCV-seropositive donors. […] Two of the sera (8326 and 8244) recognize the biotinylated version of this peptide far better than the unbiotinylated version. The specificity of the antibody reaction is also reflected by the low optical density values obtained for 5 serum samples from uninfected donors (F88, F89, F76, F136, and F6).
To determine how well biotinylated peptides would function in a mixture when bound to streptavidin- or avidin-coated plates, two mixtures were made of the N-terminally biotinylated versions of the HIV-1 peptides TM-HIV-1 (hereabove referred to as 1a.1) and V3-nm (hereabove referred to as 1b.4), the HIV-2 peptide TM-HIV-2 (hereabove referred to as 2a), and the hepatitis C virus peptides II, IX, and XVIII. […]

[2] = ELISA with seronegative / negative control sera (specificity); format: binding, human; settings: Table 7
Procedure: as §1, §2, §3, §4, §5, §6
To determine how well biotinylated peptides would function in a mixture when bound to streptavidin- or avidin-coated plates, two mixtures were made of the N-terminally biotinylated versions of the HIV-1 peptides TM-HIV-1 (hereabove referred to as 1a.1) and V3-nm (hereabove referred to as 1b.4), the HIV-2 peptide TM-HIV-2 (hereabove referred to as 2a), and the hepatitis C virus peptides II, IX, and XVIII. Mixture A contained each of the six biotinylated peptides at a concentration of 1 microgram per milliliter (6 micrograms per milliliter peptide, total) while in mixture B, each peptide was present at a concentration of 0.1 microgram per milliliter (0.6 microgram per milliliter peptide, total). The individual peptides were coated at a concentration of 1 microgram per milliliter. For purposes of comparison, mixtures A and B were also coated directly onto the wells of a microtiter plate. Samples from HIV-1, HIV-2, and HCV-seropositive donors were tested and compared to sera from seronegative blood donors. A cut-off absorbance value of 0.250 was used to determine whether a reaction was positive or negative. Absorbance values equal or greater than 0.250 were considered positive while absorbance values below this value were considered negative.

[3] = serum F8, HCV antibody-negative
[4] = serum F76, HCV antibody-negative
[5] = serum F88, HCV antibody-negative
[6] = serum F89, HCV antibody-negative
[7] = serum F136, HCV antibody-negative
[8] = serum 6378, HCV antibody-positive
[9] = serum 8242, HCV antibody-positive
[10] = serum 8243, HCV antibody-positive
[11] = serum 8244, HCV antibody-positive
[12] = serum 8248, HCV antibody-positive
[13] = serum 8316, HCV antibody-positive
[14] = serum 8318, HCV antibody-positive
[15] = serum 8320, HCV antibody-positive
[16] = serum 8326, HCV antibody-positive
[17] = serum 8329, HCV antibody-positive
[18] = serum 8330, HCV antibody-positive
[19] = serum 8333, HCV antibody-positive
[20] = serum 8334, HCV antibody-positive
[21] = serum 8336, HCV antibody-positive
[22] = serum 8344, HCV antibody-positive
[23] = serum 8364, HCV antibody-positive
[24] = serum 8374, HCV antibody-positive
[25] = serum 8387, HCV antibody-positive

Row | Substance | PEPTIDE ELISA (O.D.) ([1]; serum 0843) | PEPTIDE ELISA (O.D.) ([1]; serum 8240) | PEPTIDE ELISA (O.D.) ([1]; serum 8241) | PEPTIDE ELISA (O.D.) ([1]; serum 8242) | PEPTIDE ELISA (O.D.) ([1]; serum 8332) | PEPTIDE ELISA (O.D.) ([1]; serum 8339) | PEPTIDE ELISA (O.D.) ([1]; serum 8350) | PEPTIDE ELISA (O.D.) ([1]; serum 8377) | PEPTIDE ELISA (O.D.) ([1]; serum 8378) | PEPTIDE ELISA (O.D.) ([1]; serum 8388) | optical density (450 nm) [2, 3] | optical density (450 nm) [2, 4] | optical density (450 nm) [2, 5] | optical density (450 nm) [2, 6] | optical density (450 nm) [2, 7] | optical density (450 nm) [1, 8] | optical density (450 nm) [1, 9] | optical density (450 nm) [1, 10] | optical density (450 nm) [1, 11] | optical density (450 nm) [1, 12] | also measured
1 | Core-7: biotinylated 20-mer, HCV core aa 37-56, SEQ ID NO:41 | 1.251 | 1.529 | 0.448 | 0.632 | 1.387 | 0.166 | 0.357 | 0.221 | 1.089 | 0.970 | – | – | – | – | – | – | – | – | – | – | –
2 | H2N-Met-Ser-Thr-Ile-Pro-Lys-Pro-Gln-Arg-Lys-Thr-Lys-Arg-Asn-Thr-Asn-Arg-Arg-Pro-Gln-CONH2 (H-MSTIPKPQRKTKRNTNRRPQ-NH2) [HCV peptide I] | – | – | – | – | – | – | – | – | – | – | 0.000 | 0.000 | 0.000 | 0.017 | 0.006 | 2.161 | 1.367 | 2.211 | 0.077 | 2.042 | optical density (450 nm) [1, 13]: 2.394; optical density (450 nm) [1, 14]: 2.385; optical density (450 nm) [1, 15]: 2.760; optical density (450 nm) [1, 16]: 0.525; optical density (450 nm) [1, 17]: 2.633; optical density (450 nm) [1, 18]: 1.985; optical density (450 nm) [1, 19]: 2.143; optical density (450 nm) [1, 20]: 2.271; optical density (450 nm) [1, 21]: 1.558; optical density (450 nm) [1, 22]: 1.878; optical density (450 nm) [1, 23]: 2.705; optical density (450 nm) [1, 24]: 1.070; optical density (450 nm) [1, 25]: 1.427
3 | H2N-Met-Ser-Thr-Ile-Pro-Lys-Pro-Gln-Arg-Lys-Thr-Lys-Arg-Asn-Thr-Asn-Arg-Arg-Pro-Gln-Gly-Gly-Lys (Bio)-CONH2 (H-MSTIPKPQRKTKRNTNRRPQGGK(Biotin)-NH2; SMILES CC[C@H](C)[C@H](NC(=O)[C@@H](NC(=O)[C@H](CO)NC(=O)[C@@H](N)CCSC)[C@@H](C)O)C(=O)N1CCC[C@H]1C(=O)N[C@@H](CCCCN)C(=O)N1CCC[C@H]1C(=O)N[C@@H](CCC(N)=O)C(=O)N[C@@H](CCCNC(=N)N)C(=O)N[C@@H](CCCCN)C(=O)N[C@H](C(=O)N[C@@H](CCCCN)C(=O)N[C@@H](CCCNC(=N)N)C(=O)N[C@@H](CC(N)=O)C(=O)N[C@H](C(=O)N[C@@H](CC(N)=O)C(=O)N[C@@H](CCCNC(=N)N)C(=O)N[C@@H](CCCNC(=N)N)C(=O)N1CCC[C@H]1C(=O)N[C@@H](CCC(N)=O)C(=O)NCC(=O)NCC(=O)N[C@@H](CCCCNC(=O)CCCC[C@@H]1SC[C@@H]2NC(=O)N[C@@H]21)C(N)=O)[C@@H](C)O)[C@@H](C)O) [HCV peptide I carboxy-biotinylated] | – | – | – | – | – | – | – | – | – | – | 0.000 | 0.022 | 0.026 | 0.001 | 0.002 | 2.531 | 2.389 | 2.541 | 1.399 | 2.493 | optical density (450 nm) [1, 13]: 2.541; optical density (450 nm) [1, 14]: 2.404; optical density (450 nm) [1, 15]: 2.762; optical density (450 nm) [1, 16]: 1.775; optical density (450 nm) [1, 17]: 2.672; optical density (450 nm) [1, 18]: 2.651; optical density (450 nm) [1, 19]: 2.545; optical density (450 nm) [1, 20]: 2.549; optical density (450 nm) [1, 21]: 2.016; optical density (450 nm) [1, 22]: 2.010; optical density (450 nm) [1, 23]: 2.705; optical density (450 nm) [1, 24]: 2.151; optical density (450 nm) [1, 25]: 2.628
4 | HCV-7: biotinylated 20-mer, HCV NS4 aa 1724-1743, SEQ ID NO:55 | 2.251 | 1.963 | 0.968 | 1.252 | 0.945 | 0.041 | 0.598 | 1.829 | 2.006 | 2.504 | – | – | – | – | – | – | – | – | – | – | antibody binding to the 20-mers ([1]; serum 8241): Moderate binding
5 | NS5-25: biotinylated 20-mer, HCV NS5 aa 2263-2282, SEQ ID NO:59 | 0.062 | 0.054 | 0.050 | 0.260 | 0.047 | 1.495 | 0.069 | 1.092 | 0.279 | 0.055 | – | – | – | – | – | – | – | – | – | – | –
